This passage reports viability results from patent US20210246019A1, “PEPTIDE/LIPID-ASSOCIATED NUCLEIC ACIDS (PLANA) FOR NUCLEIC ACID DELIVERY” (priority 2020, published 2021).

This assay deals with hCoV-229E. As to the kind of experiment: microbe, parasite or virus in culture. To be noted: Human coronavirus 229E, MRC5, read-out: cell viability.

For the molecule `CCC(CC)COC(=O)[C@H](C)N[P@](=O)(OC[C@H]1O[C@@](C#N)(c2ccc3c(N)ncnn23)[C@H](O)[C@@H]1O)Oc1ccccc1` [remdesivir], the viability at 5 µM was 92%.
